From paper PMC2360155, “Novel retinoic acid metabolism blocking agents have potent inhibitory activities on human breast cancer cells and tumour growth” (British Journal of Cancer, 2007)
pIC50: −log10 of the molar value.

What was measured:
PARP = assay: Western immunoblotting for cleaved PARP in MCF-7 cells; type: cell-based, human; settings: 5 μM, 6 days
Procedure: (§1) At the end of the treatment, cells were scrapped and collected by washing with ice-cold PBS in a centrifuge tube. Cells were centrifuged at 2500 r.p.m. for 10 min, the pellet was again washed with ice-cold PBS and centrifuged. The cell pellet was then suspended in chilled cell lysis buffer (0.1 M Tris–HCl, 0.5% Triton X-100, protease inhibitor cocktail) and sonicated on ice for 10–15 s. The homogenate was kept on ice for 30 min and then centrifuged at 13 000 r.p.m. for 30 min. The supernatant was used as cell lysate. The cell lysates were stored at −80°C. Protein concentration of the cell lysates was determined using Bio-Rad protein assay reagents.
(§2) Protein lysates from MCF-7 and T47D cells were subjected to sodium dodecyl sulphate–polyacrylamide gel electrophoresis (SDS–PAGE) and immunoblotted for different proteins. […] Immunoreactive bands were visualised using the enhanced chemiluminescence detection reagents and analysis system (Amersham Bioscences) according to the manufacturer's instructions and quantified by densitometry using ImageQuant software version 5.
(§3) Figure 7 (A) Western immunoblotting of whole-cell lysates of treated MCF-7 and T47D cells for the expression of Bad. […] Numbers below the blot show fold increase in expression of the protein as analysed by ImageQuant densitometry analysis. […]

cyclin D1 = assay: Western blotting for cyclin D1 in MCF-7 cells; type: cell-based, human; settings: 6 days (4HPR 4 days)
Procedure: as §1, §2
Figure 5 Western blotting of whole-cell lysates of treated MCF-7 and T47D cells for the expression of Cyclin D1. […] Numbers below the blot show fold decrease in expression of the protein as analysed by ImageQuant densitometry analysis. […]

caspase-9 = assay: Western immunoblotting for caspase-9 in T47D cells; type: cell-based, human; settings: 6 days
Procedure: as §1
Protein lysates from MCF-7 and T47D cells were subjected to sodium dodecyl sulphate–polyacrylamide gel electrophoresis (SDS–PAGE) and immunoblotted for different proteins. Equal amounts of protein (25–50 μg) were subjected to SDS–PAGE at 60 V for 3 h using the mini PROTEAN3 electrophoresis module assembly (Bio-Rad, Hercules, CA, USA), and transferred to nitrocellulose membranes (Hybond ECL, Amersham). Immunodetections were carried out using antibodies against CK 8/18 (1° antibody – 1 : 8000 in 10% milk PBST), E-cadherin (1° antibody – 1 : 1000 in 5% milk in TBST) and ER-α (1° antibody – 1 : 200 in 5% milk PBST) purchased from Santa Cruz Biotechnology Inc. Antibodies against PARP (1° antibody – 1 : 1000 in 5% milk TBST), cyclin- D1 (1° antibody – 1 : 2000 in 10% milk TBST), caspase-9 (1° antibody – 1 : 1000 in 10% milk TBST) and BAD (1° antibody – 1 : 1000 in 5% BSA TBST) were obtained from Cell Signaling Technology. Antibody for β-actin was obtained from Calbiochem (CA, USA). Secondary anti-mouse IgG HRP conjugate antibody was purchased from Calbiochem and Bio-Rad. Secondary anti-rabbit IgG HRP conjugate antibody was bought from Bio-Rad as well as from Kirkegaard and Perry laboratories (Gaithersburg, MD, USA). Immunoreactive bands were visualised using the enhanced chemiluminescence detection reagents and analysis system (Amersham Bioscences) according to the manufacturer's instructions and quantified by densitometry using ImageQuant software version 5.
Figure 7 (A) Western immunoblotting of whole-cell lysates of treated MCF-7 and T47D cells for the expression of Bad. […] Numbers below the blot show fold increase in expression of the protein as analysed by ImageQuant densitometry analysis. Membranes were stripped and probed for β-actin to verify equal protein loading. Primary antibody (Cell Signaling Technology) 1 : 1000 in 5% BSA TBST overnight at 4°C and secondary antibody (anti-rabbit) 1 : 2000 for 1 h at RT. This experiment was repeated twice with similar results. […] Numbers below the blot show fold increase in the active form of caspase-9 as compared with control. Membrane was stripped and probed for β-actin to verify equal amount of protein loading. The primary and secondary antibodies and their dilutions are as follows: primary antibody (Cell Signaling Technology), 1 : 1000 in 10% milk TBST overnight at 4°C and secondary antibody (anti-rabbit) 1 : 2000 in 10% milk TBST for 1 h at RT. Densitometry analysis was performed by ImageQuant software. This experiment was repeated twice with similar results. (C) Western immunoblotting of whole-cell lysates of treated MCF-7 and T47D cells for the expression of full-length and cleaved PARP. […] T47D cells were treated with RAMBAs (VN/50-1 and VN/14-1) for 6 days and then cell lysates were electrophoresed using 10% SDS–PAGE and subjected to Western blotting. Lane 1: control; lanes 2–4: VN/50-1 (1, 5 and 10 μM); lanes 5–7: VN/14-1 (1, 5 and 10 μM). Numbers below the blot show fold increase in expression of the protein as analysed by ImageQuant densitometry analysis. Membranes were stripped and probed for β-actin to verify equal protein loading. Primary antibody (Cell Signaling Technology) 1 : 1000 in 5% milk TBST overnight at 4°C and secondary antibody (anti-rabbit) 1 : 2000 for 1 h at RT. […]

Bad = assay: Western immunoblotting for Bad in MCF-7 and T47D cells; type: cell-based, human; settings: 1, 5 and 10 μM each; 6 days; no significant dose-dependent effect
Procedure: as §1, §2, §3

MCF-7 tumour xenografts = assay: In vivo antitumour study, ATRA and VN/14-1 alone or in combination, MCF-7 tumour xenografts; set-up: species or system ovariectomised female athymic nude mice; settings: single agents: ATRA 33.0, VN/14-1 16.5 μmol kg^−1 day^−1; 36 days
Procedure: The second experiment was similar to that described above, but consisted of only four groups. When the tumour volume has reached about 100 mm^3, the mice were randomly divided in to four groups of five mice each. […] These treatments continued for 36 days and the tumours were measured and processed as described above.
Procedure was similar to that described in Figure 8A.

MDA-MB-231 cells = system: MDA-MB-231 cells; set-up: method as in Patel et al. (2004); settings: inhibition of cell proliferation by 50%; ref Patel et al. (2004); read-out: Cellular IC50, MDA-MB-231; cited from earlier work
T47D cells = assay: TUNEL apoptosis assay, T47D; type: cell-based, human; settings: 5 μM; 6 days; control about 1.5%
Excerpt: The cells were rinsed with PBS and then the stained-labelled apoptotic cells were mounted using DAPI (diamidino-2-phenylindole 2HCl)-glycerol and visualised with a fluorescent microscope using two filters (1) for TUNEL stained cells, and (2) for DAPI stained cells, which represents all the cells (nuclei). Fluorescent microscope model was Nikon, Eclipse E400 and the software was SPOT advanced version 3.5.5 by Diagnostic Instruments Inc. (Sterling Heights, MI, USA).
Figure 6 Graphs showing apoptosis induced in (A) MCF-7 and (B) T47D cells as determined by TUNEL. […] TUNEL-stained apoptotic cells were counted against the DAPI stained cells to obtain percentage apoptosis. The experiments were repeated thrice with similar results. Error bars show s.e.m of three different fields of treated cells, statistically significant ^*P<0.01 and ^**P<0.001 vs control.

| Compound | Increase in level of cleaved PARP (89 kDa) compared with control (PARP) | Decrease of cyclin D1 protein expression compared with untreated control (cyclin D1) [%] | Expression of procaspase-9 (47 kDa), control = 1 (caspase-9; 5 μM) [fold] | Increase of active form of caspase-9 (37 kDa) compared with untreated control (caspase-9; 5 μM) [fold] | Expression of procaspase-9 (47 kDa), control = 1 (caspase-9; 10 μM) [fold] | Increase of active form of caspase-9 (37 kDa) compared with untreated control (caspase-9; 10 μM) [fold] | Upregulation of Bad protein (Bad) | Tumour growth inhibition compared with controls (in words) (MCF-7 tumour xenografts) | pIC50 (MDA-MB-231 cells) | Induction of apoptosis (TUNEL), T47D (T47D cells) |
| --- | --- | --- | --- | --- | --- | --- | --- | --- | --- | --- |
| CC1=C(/C=C/C(C)=C/C=C/C(C)=C/C(=O)O)C(C)(C)CCC1 [ATRA, all-trans-retinoic acid, reference compound] | almost two-fold increases | > 80 | 0.4 | 1.7 | 0.3 | 1.8 | about two-fold | modest tumour growth inhibition | – | – |
| CC1=C(/C=C/C(C)=C/C=C/C(C)=C/C(=O)O)C(C)(C)CCC1n1ccnc1 (centres unmarked) [VN/14-1] | almost two-fold increases | – | 0.4 | 1.7 | 0.7 | 1.7 | about two-fold | modest tumour growth inhibition | – | – |
| CC1=C(/C=C/C(C)=C/C=C/C(C)=C/C(=O)Nc2ccc(O)cc2)C(C)(C)CCC1n1ccnc1 (centres unmarked) [VN/66-1] | – | – | – | – | – | – | – | – | 5.25 | – |
| CC1=C(/C=C/C(C)=C/C=C/C(C)=C\C(=O)Nc2ccc(O)cc2)C(C)(C)CCC1n1ccnc1 (centres unmarked) [VN/69-1] | – | – | – | – | – | – | – | – | – | least effective of the RAMBAs in inducing apoptosis |
